From US20260232666A1, “COMPOSITIONS AND METHODS FOR INHIBITION OF RAS” (TheRas, Inc., priority 2023, published 2026)

Columns and labels:
[1] = target: T1, GppNHp-loaded KRAS4b (amino acids 1-169) G12C/C118S protein (Homo sapiens, UniProt P01116, C118S/G12C); assay: Covalent cysteine 12 modification by MALDI-TOF MS, GppNHp-loaded KRAS G12C; format: binding; conditions: 15 minutes reaction time point
T1 construct: KRAS4b (amino acids 1-169) G12C/C118S protein; made in house
Method in brief: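 Covalent labelling is scored at 15 min by MALDI-TOF mass spectrometry, using 1 μM protein with compound at a 1:2.5 protein-to-compound ratio at room temperature.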

pERK in NCI-H358 cells = assay: Cell-based pERK HTRF assay (pERK inhibition in H358 cells); conditions: 30 min incubation
Method in brief: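 NCI-H358 cells were seeded at 4×10^4 cells/well in RPMI/10% FBS, then treated next day for 30 min at 0.25% DMSO (9-point, 3-fold series from 75 μM). Lysates were read by HTRF (d2/Eu cryptate antibody pair, 615 nm emission) after 4–24 h at room temperature to give pERK IC50.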

| GppNHp-KRAS G12C percent of modification [1] | IC50 (pERK in NCI-H358 cells; Homo sapiens, NCI-H358, 0.5 h) [µM] | IC50 (pERK in NCI-H358 cells) [µM] | SMILES |
| --- | --- | --- | --- |
| C (10%≤percent of modification <50%) | < 0.1 | – | C=CC(=O)N1C[C@H](N(C)c2nc(OC[C@@]34CCCN3C[C@H](F)C4)nc3cc(-c4ccc(F)c5sc(N)c(C#N)c45)c(F)cc23)C[C@@H]1C [Compound 109] |
| D (percent of modification <10%) | 0.1 to 1 | – | C=CC(=O)N1C[C@H]2CC[C@@H]1CN2c1nc(OC[C@@]23CCCN2C[C@H](F)C3)nc2c(F)c(-c3ccc(F)c4sc(N)c(C#N)c34)c(C(F)(F)F)cc12 [Compound 36] |
| A (percent of modification ≥70%) | 0.1 to 1 | – | C=CC(=O)N1CC[C@@H](N(C)c2nc(OC[C@@]34CCCN3C[C@H](F)C4)nc3c(F)c(-c4nc(N)cc(C)c4C(F)(F)F)ccc23)[C@H]1C [Compound 115] |
| A (percent of modification ≥70%) | < 0.1 | – | C=CC(=O)N1CC[C@@H](N(C)c2nc(OC[C@@H]3C[C@@H](F)CN3CC)nc3c(F)c(-c4ccc(F)c5sc(N)c(C#N)c45)c(C(F)(F)F)cc23)[C@H]1C [Compound 107] |
| A (percent of modification ≥70%) | < 0.1 | – | C=CC(=O)N1CC[C@@H](N(CC)c2nc(OC[C@]34CCCN3C[C@H](OC)C4)nc3c(F)c(-c4ccc(F)c5sc(N)c(C#N)c45)c(C(F)(F)F)cc23)[C@H]1C [Compound 158] |
| D (percent of modification <10%) | – | 0.1 to 1 | C=CC(=O)N1C[C@H](N(C)c2nc(OC[C@@]34CCCN3C[C@H](F)C4)nc3c(F)c(-c4ccc(F)c5sc(N)c(C#N)c45)c(C(F)(F)F)cc23)C[C@H]1C (atropisomer, axis not shown) [Compound 177] |
| A (percent of modification ≥70%) | – | < 0.1 | C=CC(=O)N1CC[C@@H](N(CC)c2nc(OC[C@@H]3C[C@@H](F)CN3C)nc3c(F)c(-c4ccc(F)c5sc(N)c(C#N)c45)c(C(F)(F)F)cc23)[C@H]1C (atropisomer, axis not shown) [Compound 113] |
| C (10%≤percent of modification <50%) | < 0.1 | – | C=CC(=O)N1CC[C@@H](N(C)c2nc(OC[C@@H]3C[C@@H](F)CN3CC)nc3c(F)c(-c4ccc(F)c5sc(N)c(C#N)c45)c(C(F)(F)F)cc23)[C@@H]1C [Compound 144] |
| D (percent of modification <10%) | – | 0.1 to 1 | C=CC(=O)N1CC[C@@H](N(C)c2nc(OC[C@@H]3C[C@@H](OC)CN3C)nc3c(F)c(-c4ccc(F)c5sc(N)c(C#N)c45)c(C(F)(F)F)cc23)[C@H]1C (single isomer, unassigned) [Compound 174] |
| C (10%≤percent of modification <50%) | < 0.1 | – | C=CC(=O)N1CC[C@@H](N(CC)c2nc(OC[C@@]34CCCN3C[C@H](F)C4)nc3c(F)c(-c4ccc(F)c5sc(N)c(C#N)c45)c(Cl)cc23)[C@H]1CC [Compound 20] |
| A (percent of modification ≥70%) | 0.1 to 1 | – | C=CC(=O)N1CC[C@@H](N(C)c2nc(OC[C@@]34CCCN3C[C@H](F)C4)nc3cc(-c4nc(N)cc(C)c4C(F)(F)F)c(F)cc23)[C@H]1C [Compound 110] |
| A (percent of modification ≥70%) | < 0.1 | – | C=CC(=O)N1C[C@H](N(C)c2nc(OC[C@@H]3CCCN3C)nc3c(F)c(-c4ccc(F)c5sc(N)c(C#N)c45)c(C(F)(F)F)cc23)C[C@H]1C [Compound 147] |
| A (percent of modification ≥70%) | 0.1 to 1 | – | C=CC(=O)N1CCC(N(CC)c2nc(OC[C@@]34CCCN3C[C@H](F)C4)nc3cc(-c4ccc(F)c5sc(N)c(C#N)c45)c(C#N)cc23)[C@H]1CC (stereo partly drawn) [Compound 14] |
| A (percent of modification ≥70%) | < 0.1 | – | C=CC(=O)N1CC[C@@H](N(C)c2nc(OC[C@@]34CCCN3C[C@H](F)C4)nc3cc(-c4ccc(F)c5sc(N)c(C#N)c45)c(F)cc23)[C@H]1CC [Compound 29] |
| A (percent of modification ≥70%) | < 0.1 | – | C=CC(=O)N1CC[C@@H](N(CC)c2nc(OC[C@@]34CCCN3C[C@H](OC)C4)nc3c(F)c(-c4ccc(F)c5sc(N)c(C#N)c45)c(Cl)cc23)[C@H]1C [Compound 163] |
| A (percent of modification ≥70%) | < 0.1 | – | C=CC(=O)N1CC[C@@H](N(C)c2nc(OC[C@@H]3CCCN3CC)nc3c(F)c(-c4ccc(F)c5sc(N)c(C#N)c45)c(C(F)(F)F)cc23)[C@@H]1C [Compound 30] |
| A (percent of modification ≥70%) | < 0.1 | – | C=CC(=O)N1C[C@H](N(C)c2nc(OC[C@@H]3CCCN3C)nc3c(F)c(-c4ccc(F)c5sc(N)c(C#N)c45)c(C(F)(F)F)cc23)C[C@@H]1C [Compound 153] |

| GppNHp-KRAS G12C percent of modification [1] | IC50 (pERK in NCI-H358 cells; Homo sapiens, NCI-H358, 0.5 h) [µM] | IC50 (pERK in NCI-H358 cells) [µM] | SMILES |
| --- | --- | --- | --- |
| A (percent of modification ≥70%) | < 0.1 | – | C=CC(=O)N1CC[C@@H](N(C)c2nc(OC[C@@H]3C[C@@H](OC)CN3C)nc3c(F)c(-c4ccc(F)c5sc(N)c(C#N)c45)c(C(F)(F)F)cc23)[C@@H]1C [Compound 33] |
| A (percent of modification ≥70%) | – | < 0.1 | C=CC(=O)N1CC[C@@H](N(C)c2nc(OC[C@@H]3CCCN3C)nc3c(F)c(-c4ccc(F)c5sc(N)c(C#N)c45)c(C(F)(F)F)cc23)[C@H]1C (atropisomer, axis not shown) [Compound 131] |
| D (percent of modification <10%) | – | > 1 | C=CC(=O)N1CC[C@@H](N(CC)c2nc(OC[C@@H]3CC4(CC4)CN3C)nc3c(F)c(-c4ccc(F)c5sc(N)c(C#N)c45)c(Cl)cc23)[C@H]1C (atropisomer, axis not shown) [Compound 121] |
| B (50≤percent of modification <70%) | < 0.1 | – | C=CC(=O)N1CC[C@@H](N(C)c2nc(OC[C@@]34CCCN3C[C@H](F)C4)nc3c(F)c(-c4ccc(F)c5sc(N)c(C#N)c45)c(C(F)(F)F)cc23)[C@H]1CC [Compound 18] |
| A (percent of modification ≥70%) | < 0.1 | – | C=CC(=O)N1CC[C@@H](N(C)c2nc(OC[C@@H]3C[C@@H](F)CN3CC)nc3c(F)c(-c4ccc(F)c5sc(N)c(C#N)c45)c(Cl)cc23)[C@@H]1C [Compound 105] |
| A (percent of modification ≥70%) | < 0.1 | – | C=CC(=O)N1CC[C@@H](N(C)c2nc(OC[C@@H]3CC4(CC4)CN3C)nc3c(F)c(-c4ccc(F)c5sc(N)c(C#N)c45)c(C(F)(F)F)cc23)[C@@H]1C (atropisomer, axis not shown) [Compound 111] |
| A (percent of modification ≥70%) | < 0.1 | – | C=CC(=O)N1CC[C@@H](N(CC)c2nc(OC[C@]34CCCN3C[C@H](F)C4)nc3cc(-c4ccc(F)c5sc(N)c(C#N)c45)c(F)cc23)[C@H]1C [Compound 167] |
| C (10%≤percent of modification <50%) | < 0.1 | – | C=CC(=O)N1CC[C@@H](N(C)c2nc(OC[C@@]34CCCN3C[C@H](F)C4)nc3c(F)c(-c4ccc(F)c5sc(N)c(C#N)c45)ccc23)[C@@H]1CC [Compound 23] |
| C (10%≤percent of modification <50%) | < 0.1 | – | C=CC(=O)N1CC[C@@H](N(CC)c2nc(OC[C@@H]3CCCN3C)nc3c(F)c(-c4nc(N)cc(C)c4C(F)(F)F)c(C(F)(F)F)cc23)[C@H]1C [Compound 155] |
| A (percent of modification ≥70%) | < 0.1 | – | C=CC(=O)N1CC[C@@H](N(C)c2nc(OC[C@@H]3C[C@@H](OC)CN3CC)nc3c(F)c(-c4ccc(F)c5sc(N)c(C#N)c45)c(C(F)(F)F)cc23)[C@@H]1C [Compound 101] |
| A (percent of modification ≥70%) | < 0.1 | – | C=CC(=O)N1CCN(c2nc(OC[C@@]34CCCN3C[C@H](F)C4)nc3c(F)c(-c4ccc(F)c5sc(N)c(C#N)c45)c(C(F)(F)F)cc23)C2CC21 (stereo partly drawn) [Compound 106] |
| A (percent of modification ≥70%) | < 0.1 | – | C=CC(=O)N1CC[C@@H](N(C)c2nc(OC[C@]34CCCN3C[C@H](OC)C4)nc3c(F)c(-c4ccc(F)c5sc(N)c(C#N)c45)c(Cl)cc23)[C@H]1C [Compound 161] |
| A (percent of modification ≥70%) | < 0.1 | – | C=CC(=O)N1CC[C@@H](N(C)c2nc(OC[C@@H]3C[C@@H](F)CN3C)nc3c(F)c(-c4ccc(F)c5sc(N)c(C#N)c45)c(C(F)(F)F)cc23)[C@@H]1C [Compound 32] |
| A (percent of modification ≥70%) | < 0.1 | – | C=CC(=O)N1CC[C@@H](N(C)c2nc(OC[C@@]34CCCN3C[C@H](F)C4)nc3c(F)c(-c4ccc(F)c5sc(N)c(C#N)c45)ccc23)[C@H]1CC [Compound 4] |
| A (percent of modification ≥70%) | < 0.1 | – | C=CC(=O)N1CC[C@@H](N(C)c2nc(OC[C@@]34CCCN3C[C@H](OC)C4)nc3c(F)c(-c4ccc(F)c5sc(N)c(C#N)c45)c(C(F)(F)F)cc23)[C@H]1C [Compound 151] |
| C (10%≤percent of modification <50%) | < 0.1 | – | C=CC(=O)N1CC[C@H](N(CC)c2nc(OC[C@@]34CCCN3C[C@H](F)C4)nc3c(F)c(-c4ccc(F)c5sc(N)c(C#N)c45)c(C(F)(F)F)cc23)C1 (atropisomer, axis not shown) [Compound 171] |
